# pIC50: −log10 of the molar value. Peptide text beside a SMILES is read from it. * marks the point of attachment. Cbz = O=C(OCc1ccccc1)*; CH2F = FC*
# Key:
# [1] = tested on: IL-2 release from peripheral blood mononuclear cells; assay: IL-2 release from anti-CD3/CD28 stimulated PBMC; assay type: cell-based, human; settings: anti-CD3/CD28 stimulated human PBMC, 24 hours; read-out: IC50, inhibition of IL-2 release
# Protocol: PBMC from healthy donors were isolated as described above. To the wells of a 96-well plate previously coated with 1.5 μg/ml anti-hCD3 (Serotec, Kidlington, UK), 5 × 10^5 cells/ml and 1 μg/ml anti-hCD28 (BD Biosciences, Oxford, UK) were added. Plates were then incubated for 24 hours in the presence or absence of VX-166 or the calcineurin inhibitor FK506 (Merck Biosciences Ltd., Nottingham, UK). IL-2 release into the supernatant was subsequently determined by ELISA (R&D Systems, Abingdon, UK) following the manufacturer's instructions.
# [2] = tested on: IL-2 release from activated T-cells; design: method as in PMID 10601363; settings: 50 μM; cited from earlier work
# Jurkat cells = assay: Anti-Fas induced apoptosis in Jurkat cells, Annexin V; assay type: cell-based, human; settings: Fas-induced apoptosis, readout not specified, data not shown; read-out: IC50 in Fas-assay
# Protocol: Jurkat cells were obtained from LGC Standards (Teddington, UK) and were grown in RPMI 1640, 10% FCS, 2 mM L-glutamine, 100 U/ml penicillin and 0.1 mg/ml streptomycin (all from Sigma Aldrich Ltd., Poole, UK) at 37°C in 5% CO2/95% humidity. Receptor- or stress-mediated apoptosis (2 × 10^5 cells/ml) was induced by addition of either anti-Fas antibody CH-11 (10 ng/ml, Millipore UK Ltd., Watford, UK), TNF-α (20 ng/ml, R&D Systems, Abingdon, UK) with cycloheximide (112 ng/ml, Sigma Aldrich Ltd., Poole, UK) or staurosporine (350 ng/ml, Sigma Aldrich Ltd., Poole, UK). VX-166 was diluted into DMSO (10 mM), further diluted in media and added at a range of concentrations. Cells were then incubated for 18 hours. Apoptotic cells were then labelled with Cy5-conjugated Annexin-V (BD Biosciences, Oxford, UK) and detected using a FMAT™ 8100 Fluorimetric Microassay Technology Reader (Applied Biosystems, Warrington, UK). For the experiments using anti-Fas antibody, apoptosis was additionally measured using a Cell Death Detection ELISA kit (Roche Diagnostics Ltd., Lewes, UK) following the manufacturer's instructions.
pIC50 [1],Compound,block of IL-2 release from activated T-cells [2],pIC50 (Jurkat cells)
9.70,"C=CC[C@@H]1/C=C(\C)C[C@H](C)C[C@H](OC)[C@H]2O[C@@](O)(C(=O)C(=O)N3CCCC[C@H]3C(=O)O[C@H](/C(C)=C/[C@@H]3CC[C@@H](O)[C@H](OC)C3)[C@H](C)[C@@H](O)CC1=O)[C@H](C)C[C@@H]2OC [FK506, reference compound]",,
,"COC(=O)C[C@H](NC(=O)[C@H](C)NC(=O)[C@@H](NC(=O)OCc1ccccc1)C(C)C)C(=O)CF [zVAD-FMK, reference compound] (Cbz-Val-Ala-Asp(OMe)-CH2F)",block IL-2 release,6.64
,IETD-FMK,block IL-2 release,

# From paper PMC2784364, “VX-166: a novel potent small molecule caspase inhibitor as a potential therapy for sepsis” (Critical Care, 2009)
